In patent EP4786462A1, “PYRIDONE COMPOUNDS AND PREPARATION METHOD THEREFOR, AND APPLICATION” (Shenzhen Salubris Pharmaceuticals Co., Ltd., priority 2023, dated 2025):

target: T1, hERG channel (Homo sapiens, UniProt Q12809); assay: Effect on hERG current in hERG-HEK293 cells (automated patch-clamp); type: cell-based; conditions: 30 µM compound, peak tail current vs 0.3% DMSO
T1 construct: expressed in transfected cells
T1 sequence (Q12809 whole entry): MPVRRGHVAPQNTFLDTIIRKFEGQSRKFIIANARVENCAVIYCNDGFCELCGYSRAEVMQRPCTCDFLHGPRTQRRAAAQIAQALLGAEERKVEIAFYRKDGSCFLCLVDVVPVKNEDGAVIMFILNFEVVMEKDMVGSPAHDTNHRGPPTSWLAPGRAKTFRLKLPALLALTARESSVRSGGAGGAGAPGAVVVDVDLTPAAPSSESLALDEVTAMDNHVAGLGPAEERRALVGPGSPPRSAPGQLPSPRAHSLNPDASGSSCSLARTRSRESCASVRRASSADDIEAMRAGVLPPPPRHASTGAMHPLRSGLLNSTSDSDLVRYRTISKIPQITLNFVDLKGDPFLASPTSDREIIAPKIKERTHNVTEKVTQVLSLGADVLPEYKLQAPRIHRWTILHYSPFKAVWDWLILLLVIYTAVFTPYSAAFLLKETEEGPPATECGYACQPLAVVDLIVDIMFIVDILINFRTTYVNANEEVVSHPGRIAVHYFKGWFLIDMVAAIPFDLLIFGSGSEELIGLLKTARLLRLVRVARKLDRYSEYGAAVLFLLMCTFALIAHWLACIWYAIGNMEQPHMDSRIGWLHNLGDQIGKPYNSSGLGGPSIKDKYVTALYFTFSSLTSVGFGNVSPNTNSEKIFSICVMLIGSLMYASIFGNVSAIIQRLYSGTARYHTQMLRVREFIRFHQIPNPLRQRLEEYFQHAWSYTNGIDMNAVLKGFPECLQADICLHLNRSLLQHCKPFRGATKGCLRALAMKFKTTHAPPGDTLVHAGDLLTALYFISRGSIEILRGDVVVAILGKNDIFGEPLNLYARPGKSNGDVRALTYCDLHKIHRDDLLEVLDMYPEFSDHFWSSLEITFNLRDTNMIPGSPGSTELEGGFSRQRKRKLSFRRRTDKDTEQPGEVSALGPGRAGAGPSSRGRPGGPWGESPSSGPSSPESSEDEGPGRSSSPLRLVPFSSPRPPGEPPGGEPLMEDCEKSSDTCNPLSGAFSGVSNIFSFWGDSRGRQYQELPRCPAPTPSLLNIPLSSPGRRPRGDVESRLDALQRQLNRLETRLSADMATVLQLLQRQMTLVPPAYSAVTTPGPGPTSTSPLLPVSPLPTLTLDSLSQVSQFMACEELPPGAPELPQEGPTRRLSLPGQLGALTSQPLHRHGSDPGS

SMILES | hERG Inhibition (%) | 30 uM-hERG Inhibition
COc1ccn2nc(N[C@H]3CC[C@H](Nc4ccc(-n5ccccc5=O)cn4)C3)nc2c1 [Example C8, 6'-(((1S,3S)-3-((7-methoxy-[1,2,4]triazolo[1,5-a]pyridin-2-yl)amino)cyclopentyl)amino)-2H-[1,3 '-bipyridin]-2-one] | <50% | –
O=c1ccccn1-c1cnc(N[C@H]2CC[C@H](Nc3nc4nccnc4s3)C2)c(F)c1 [Example C19] | <50% | –
O=c1ccccn1-c1cnc(N[C@H]2CC[C@H](Nc3nc4cccnc4[nH]3)C2)c(F)c1 [Example C56] | <50% | –
O=c1cccnn1-c1cnc(N[C@H]2CC[C@H](Nc3nc4cccnc4[nH]3)C2)c(F)c1 [Example C69] | <50% | –
O=c1cccnn1-c1ccc(N[C@H]2CC[C@H](Nc3nc4ccccn4n3)C2)nc1 [Example C43] | <50% | –
Cc1ccc2nc(N[C@H]3CC[C@H](Nc4ccc(-n5ccccc5=O)cn4)C3)nn2c1 [Example C32] | <50% | –
O=c1cccnn1-c1cnc(N[C@H]2CC[C@H](Nc3nc4cccnc4o3)C2)c(F)c1 [Example C48] | <50% | –
O=c1cccnn1-c1ccc(N[C@H]2CC[C@H](Nc3nc4cccnc4[nH]3)C2)nc1 [Example C66] | <50% | –
O=c1ccc2cccnc2n1-c1ccc(N[C@H]2CC[C@H](Nc3nc4cccnc4s3)C2)nc1 [Example C84] | <50% | –
O=c1c(C2CC2)cccn1-c1ccc(N[C@H]2CC[C@H](Nc3nc4cccnc4[nH]3)C2)nc1 [Example C58] | <50% | –
Cn1c(=O)n(-c2ccc(N[C@H]3CC[C@H](Nc4nc5ccccn5n4)C3)nc2)c2cc(C#N)ccc21 [Example C64] | <50% | –
O=c1c(Cl)cccn1-c1cnc(N[C@H]2CC[C@H](Nc3nc4cccnc4[nH]3)C2)c(F)c1 [Example C61] | <50% | –
O=C(O)c1cccn(-c2ccc(N[C@H]3CC[C@H](Nc4ncc(OC(F)F)cn4)C3)nc2)c1=O [Example A22, 6'-(((1S,3S)-3-((5-(difluoromethoxy)pyrimidin-2-yl)amino)cyclopentyl)amino)-2-oxo-2H-[1,3'-bipyridine]-3-carboxylic acid] | – | 19.56
O=c1ccccn1-c1cnc(N[C@H]2CC[C@H](Nc3nc4cccnc4o3)C2)c(F)c1 [Example C53] | <50% | –
O=c1c(Cl)ccnn1-c1cnc(N[C@H]2CC[C@H](Nc3nc4ccccn4n3)C2)c(F)c1 [Example C67] | <50% | –
O=c1c(Cl)cccn1-c1cnc(N[C@H]2CC[C@H](Nc3nc4ccccn4n3)C2)c(F)c1 [Example C36] | <50% | –
O=c1ccc2cccnc2n1-c1ccc(N[C@H]2CC[C@H](Nc3nc4ccccn4n3)C2)nc1 [Example C71] | <50% | –
O=c1ccccn1-c1ccc(N[C@H]2CC[C@H](Nc3nc4cccnc4s3)C2)nc1 [Example C15] | <50% | –
O=c1c(Cl)ccnn1-c1ccc(N[C@H]2CC[C@H](Nc3nc4ccccn4n3)C2)nc1 [Example C65] | <50% | –
O=c1ccccn1-c1cnc(N[C@H]2CC[C@H](Nc3ncc(OC(F)F)cn3)C2)c(CO)c1 [Example A30] | – | 33.75
C#Cc1ccc2nc(N[C@H]3CC[C@H](Nc4ccc(-n5ccccc5=O)cn4)C3)nn2c1 [Example C26] | <50% | –
O=c1ccccn1-c1ccc(N[C@H]2CC[C@H](Nc3nc4ccccn4n3)C2)nc1 [Example C7, 6'-(((1S,3S)-3-([1,2,4]triazolo[1,5-a]pyridin-2-ylamino)cyclopentyl)amino)-2H-[1,3'-bipyridin]-2-one] | <50% | –
O=c1ccccn1-c1ccc(N[C@H]2CC[C@H](Nc3nc4ncccn4n3)C2)nc1 [Example C30] | <50% | –
